Broadly, the IC50 is the point on the concentration scale where inhibition reaches its midpoint.

Results on seven compounds are retold here after patent US10131644B2, “Aryl sultam derivatives as RORc modulators” (Genentech, Inc., priority 2014, dated 2018).

The experiment has as its target T1, RORc (Homo sapiens, UniProt P51449).
T1 sequence (P51449 269-508 limits assumed): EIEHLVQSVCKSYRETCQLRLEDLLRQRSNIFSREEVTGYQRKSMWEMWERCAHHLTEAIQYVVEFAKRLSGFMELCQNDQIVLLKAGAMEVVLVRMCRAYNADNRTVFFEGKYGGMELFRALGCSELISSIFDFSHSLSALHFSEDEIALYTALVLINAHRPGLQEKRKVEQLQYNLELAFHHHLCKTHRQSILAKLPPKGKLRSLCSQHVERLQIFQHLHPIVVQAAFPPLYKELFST
In words: In vitro RORc ligand binding assay (25-[3H]hydroxycholesterol displacement). The following applies: IC50, IC50 values for RORc; unit inferred.

Method: This assay was used to determine a compound's potency in inhibiting activity of RORc by determining, Kiapp, IC50, or percent inhibition values.
On day of the assay, 100 uL of 0.05% CHAPS (in deionized H2O) was added to all wells of the GFB Unifilter plate and allowed soak for 1 h. A wash buffer of 50 mM HEPES (pH 7.4), 150 mM NaCl, and 5 mM MgCl2 was prepared to wash the filter plate. To prepare an assay buffer, BSA was added to the wash buffer to reach 0.01% and DTT was added to reach 1 mM.
The 20× compound stocks were diluted in DMSO with Assay Buffer 4-fold to reach 5× the final test concentration in 25% DMSO (10 uL compound+30 uL Assay Buffer). Solutions were mixed by aspiration several times with a pipette set on 50 uL volume. For the assay, 10 uL of 5× compound stock solutions in 25% DMSO were added to the assay plate in duplicate.
For two point screening, 10 mM stock compound solutions were diluted in DMSO to obtain 200 uM (20× the high test concentration) and then diluted 10-fold further to reach 20 uM (20× the low test concentration). The 20× stocks were diluted 4-fold with Assay Buffer (10 uL compound+30 uL Assay Buffer) to reach 5× the test concentrations (50 uM and 5 uM) and 10 uL were added to two assay plates for the duplicate wells. With each concentration tested on 2 plates, each set of 80 compounds used 4 assay plates (1 uM and 10 uM, with n=2).
For 25-hydroxycholesterol in 25% DMSO/75% Assay Buffer; 10 uL per well was used for NSB samples. Wells for Total Binding and No Receptor sample determination contained 10 uL of 25% DMSO/75% Assay Buffer per well.
Add 20 uL to all wells to reach 6 nM final in the assay.
Stock receptor solution was diluted in assay buffer to obtain 1.5 ug/mL in Assay Buffer. 20 uL was added to all wells. For No R samples, 20 uL Assay Buffer was substituted for receptor solution.
Assay plates were 96-well polypropylene V-bottom plates. 10 uL of 5× compound in 25% DMSO/75% Assay Buffer was added to Test wells. 10 uL of 25% DMSO/75% Assay Buffer was added to Total Binding or No Receptor wells. 10 uL of 5 uM 25-hydroxycholesterol in 25% DMSO/75% Assay Buffer was added to NSB wells. […] 20 uL of 1.5 ug/mL RORc receptor was added to wells (or 40 uL Assay Buffer to No R wells). Following addition to the wells, the plates were incubated 3 h at 25° C.
Using a Packard Filtermate Harvester, the filter plate were washed 4 times following transfer of the incubated samples. Plates were dry-filtered completely (2 h at 50° C. or overnight at room temperature). 50 uL Microscint 0 was added to all wells and read on Topcount protocol Inverted.
For NSB wells, 1 uM 25-hydroxycholesterol was also present.

`C[C@H]1CC[C@H](c2ccccc2)S(=O)(=O)N1Cc1ccc([C@]2(CO)CC[C@H](n3cnnc3)CC2)cc1` [Example 14, {1-[4-((3S,6R)-3-Methyl-1,1-dioxo-6-phenyl-[1,2]thiazinan-2-ylmethyl)-phenyl]-4-[1,2,4]triazol-4-yl-cyclohexyl}-methanol]: the IC50 came out at 1800 nM.

`C[C@H]1CC[C@H](c2ccccc2)S(=O)(=O)N1Cc1ccc([C@]2(C(=O)N(C)C)CC[C@H](n3cnnc3)CC2)cc1` [Example 16, 1-[4-((3S,6R)-3-Methyl-1,1-dioxo-6-phenyl-[1,2]thiazinan-2-ylmethyl)-phenyl]-4-[1,2,4]triazol-4-yl-cyclohexanecarboxylic acid dimethylamide] gave an IC50 of 2400 nM. This IC50 and that of the compound before are within 1.5-fold of each other.

The compound `COC(=O)[C@]1(c2ccc(CN3[C@@H](C)CC[C@H](c4ccccc4)S3(=O)=O)cc2)CC[C@H](n2cnnc2)CC1` [Example 17, 1-[4-((3S,6R)-3-Methyl-1,1-dioxo-6-phenyl-[1,2]thiazinan-2-ylmethyl)-phenyl]-4-[1,2,4]triazol-4-yl-cyclohexanecarboxylic acid methyl ester] gave an IC50 of 360 nM. Against the preceding compound, the IC50 is about 6.7-fold lower.

With `C[C@H]1CC[C@H](c2ccccc2)S(=O)(=O)N1Cc1ccc([C@]2(C#N)CC[C@@H](NC=O)CC2)cc1` [Example 19, N-{4-Cyano-4-[4-((3S,6R)-3-methyl-1,1-dioxo-6-phenyl-[1,2]thiazinan-2-ylmethyl)-phenyl]-cyclohexyl}-formamide], the IC50 was 310 nM.

The compound `C[C@H]1CC[C@H](c2ccccc2)S(=O)(=O)N1Cc1ccc([C@]2(C#N)CC[C@@H](n3cnnc3)CC2)cc1F` [Example 20, 1-[3-Fluoro-4-((3S,6R)-3-methyl-1,1-dioxo-6-phenyl-[1,2]thiazinan-2-ylmethyl)-phenyl]-4-[1,2,4]triazol-4-yl-cyclohexanecarbonitrile] gave an IC50 of 110 nM.

`C[C@H]1CC[C@H](c2ccccc2)S(=O)(=O)N1Cc1ccc(C2(C#N)CCC3(CC2)OCCO3)cc1F` [Example 21, 8-[3-Fluoro-4-((3S,6R)-3-methyl-1,1-dioxo-6-phenyl-[1,2]thiazinan-2-ylmethyl)-phenyl]-1,4-dioxa-spiro[4.5]decane-8-carbonitrile] gave an IC50 of 35 nM.

Regarding `C[C@H]1CC[C@H](c2ccccc2)S(=O)(=O)N1Cc1ccc(C2(C(N)=O)CCC3(CC2)OCCO3)cc1F` [Example 22, 8-[3-Fluoro-4-((3S,6R)-3-methyl-1,1-dioxo-6-phenyl-[1,2]thiazinan-2-ylmethyl)-phenyl]-1,4-dioxa-spiro[4.5]decane-8-carboxylic acid amide], the IC50 is 30 nM.
